Assay results as given in PubChem BioAssay (NCI).
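In this assay, cells in 96-well plates receive the compound at five concentrations for 48 hours. Endpoints are linearly interpolated between the surrounding concentrations. Here, GI50 denotes the concentration required for 50% inhibition of growth. TGI denotes the concentration required for complete inhibition of growth.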

Legend:
Assay in all cases: NCI tumour cell line growth inhibition, 48 h
CAKI-1 renal = tested on: CAKI-1 renal
EKVX NSCLC = tested on: EKVX NSCLC
HOP-62 NSCLC = tested on: HOP-62 NSCLC
HS 578T breast = tested on: HS 578T breast
NCI-H460 lung = tested on: NCI-H460 lung
OVCAR-3 ovarian = tested on: OVCAR-3 ovarian
RPMI-8226 leukemia = tested on: RPMI-8226 leukemia
SNB-75 CNS = tested on: SNB-75 CNS
SW-620 colon = tested on: SW-620 colon
TK-10 renal = tested on: TK-10 renal

| SMILES | GI50 (CAKI-1 renal) [µM] | TGI (CAKI-1 renal) [µM] | GI50 (EKVX NSCLC) [µM] | TGI (EKVX NSCLC) [µM] | GI50 (HOP-62 NSCLC) [nM] | TGI (HOP-62 NSCLC) [µM] | GI50 (HS 578T breast) [µM] | TGI (HS 578T breast) [µM] | GI50 (NCI-H460 lung) [µM] | TGI (NCI-H460 lung) [µM] | GI50 (OVCAR-3 ovarian) [µM] | TGI (OVCAR-3 ovarian) [µM] | GI50 (RPMI-8226 leukemia) [nM] | TGI (RPMI-8226 leukemia) [µM] | GI50 (SNB-75 CNS) [µM] | TGI (SNB-75 CNS) [µM] | GI50 (SW-620 colon) [µM] | TGI (SW-620 colon) [µM] | GI50 (TK-10 renal) [µM] | TGI (TK-10 renal) [µM] |
| --- | --- | --- | --- | --- | --- | --- | --- | --- | --- | --- | --- | --- | --- | --- | --- | --- | --- | --- | --- | --- |
| CCOC(=O)[C@@H](C)C[C@H](Cc1ccccc1)NC(=O)c1csc([C@@H](C[C@H](C(C)C)N(C)C(=O)[C@@H](NC(=O)[C@H]2CCCCN2C)C(C)(C)C)OC(C)=O)n1 | < 0.00167 | > 16.7 | < 0.00167 | > 16.7 | < 1.67 | > 16.7 | < 0.00167 | 0.472 | < 0.00167 | > 5.37 | < 0.00167 | 0.00352 | < 1.67 | > 6.36 | < 0.00167 | 12.6 | < 0.00167 | > 16.7 | 0.117 | > 16.7 |
| CN1CCN(Cc2ccc(NC(=O)c3ccc(C(C)(C)C)c(C#Cc4cnc5cccnn45)c3)cc2C(F)(F)F)CC1 | 12.1 | 26.7 | 5.8 | 19.3 | 1760 | 3.35 | 10.4 | 39.2 | 2.13 | 4.52 | 3.55 | 12.2 | 2540 | 6.11 | 1.59 | 3.09 | 2.04 | 4.09 | 2.62 | 7.02 |
| C=CC(=O)N1CCN(c2ncnc3c(F)c(-c4c(O)cccc4F)c(Cl)cc23)CC1 | 12.6 | 25.8 | 15.1 | 28.9 | 211 | 20.7 | 19 | 66.4 | 14.8 | 33.5 | 9.02 | 23.5 | 5690 | 36.6 | 7.54 | 22.6 | 14 | 31.9 | 16.1 | 43.4 |
| Cc1c(C(=O)NN)nnn1-c1ccnc2c(C(F)(F)F)cccc12 | > 100 | > 100 | > 100 | > 100 | > 100000 | > 100 | > 100 | > 100 | > 100 | > 100 | > 100 | > 100 | > 100000 | > 100 | 37.9 | > 100 | > 100 | > 100 | > 100 | > 100 |
| N#Cc1c(-c2ccccc2)nc2c(c(-c3ccccc3)nn2-c2ccccc2)c1-c1ccc(O)cc1 | 2.48 | 6.7 | 1.92 | 5.1 | 2120 | 4.49 | 1.41 | 4.46 | 1.73 | 3.26 | 2 | 4.45 | 2420 | 17.9 | 2.03 | 7.28 | 1.86 | 3.53 | 2.89 | 8.19 |
| CCN(CCO)CCNc1ccc(C)c2sc3cc(Cl)ccc3c(=O)c12 | 1.72 | 4.03 | 1.62 | 3.18 | 1500 | 2.95 | 1.76 | 4.46 | 1.41 | 3.03 | 1.72 | 4.13 | 1860 | 4.6 | 1.97 | 5.44 | 1.27 | 2.77 | 1.8 | 3.31 |
| CCCCCCNc1nc(NCCCCCC)c2[nH]c(NCCCCCC)nc2n1 | 16.2 | 50.9 | 5.51 | 30 | 18500 | 33 | 1.97 | 9.84 | 5.37 | 19.5 | 2.1 | 9.44 | 1860 | 10.3 | 4.31 | 20.7 | 3.04 | 12.3 | 21.3 | 46.6 |
| COC(=O)c1c(O)ccc2[nH]c(C)c(C#N)c12 | 30.4 | 90.1 | 96.2 | > 100 | 22700 | 81 | 31 | 92.2 | 37.3 | > 100 | 31.4 | > 100 | 27300 | > 100 | 87.9 | > 100 | 45.4 | > 100 | 8.8 | 49.2 |
| COc1ccc(C2C(C#N)=C(N)OC3=C2CCCc2ccc(F)cc23)cc1OC (stereo not given) | 34.2 | 65.3 | 10.1 | 37.5 | 21500 | 42.3 | 22 | 51.5 | 20.9 | 54.4 | 19.3 | 46.2 | 7460 | 22.8 | 34.7 | > 84.6 | 12.5 | 30.3 | 28.8 | 56.3 |
